This is an account of results in PubChem BioAssay (NCI).

Test systems include HOP-92 NSCLC; SK-MEL-2 melanoma; SNB-75 CNS; K-562 leukemia; OVCAR-4 ovarian; HT29 colon; 786-0 renal; SK-OV-3 ovarian; UO-31 renal; SN12C renal.
Holding throughout (test): inhibition of tumour cell growth, NCI panel, 48 h

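Cultured in 96-well plates, cells were exposed to test compound for 48 hours across five concentrations. Here, GI50 denotes the concentration required for 50% inhibition of growth. TGI denotes the concentration required for complete inhibition of growth.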

Take `CCSC[C@@H]1C[C@](O)(c2ccccc2)[C@@H](c2ccccc2)O1`: the GI50 with HOP-92 NSCLC was 65.5 µM; in the assay with SK-MEL-2 melanoma, above 100 µM; in the assay on SNB-75 CNS, 61.4 µM; with K-562 leukemia, 12.3 µM; in the assay with OVCAR-4 ovarian it was 66.9 µM; in the assay on HT29 colon, 69.6 µM. Moreover, the GI50 was above 100 µM with 786-0 renal, above 100 µM with SK-OV-3 ovarian, 51.2 µM in the assay with UO-31 renal and above 94.5 µM in the assay on SN12C renal. Besides, the TGI in the assay with HOP-92 NSCLC, in the assay with SK-MEL-2 melanoma, in the assay with SNB-75 CNS, in the assay on K-562 leukemia, in the assay with OVCAR-4 ovarian and in the assay on HT29 colon was above 100 µM throughout. The TGI with 786-0 renal, in the assay with SK-OV-3 ovarian, in the assay on UO-31 renal and in the assay on SN12C renal was above 100 µM each time.

For `S=c1ssnc1-c1cc2ccccc2o1`, the GI50 with HOP-92 NSCLC is 18.5 µM; in the assay on SK-MEL-2 melanoma it was 13.8 µM; in the assay on SNB-75 CNS, 23.3 µM; with K-562 leukemia it was 22.5 µM; in the assay with OVCAR-4 ovarian it was 21.6 µM; with HT29 colon, 14.3 µM. Besides, the GI50 is 16.5 µM with 786-0 renal, 18.7 µM in the assay on SK-OV-3 ovarian, 13.4 µM in the assay on UO-31 renal and 13.8 µM in the assay with SN12C renal. Also, the TGI in the assay on HOP-92 NSCLC was 43.2 µM; in the assay with SK-MEL-2 melanoma, 28.3 µM; in the assay on SNB-75 CNS, 95.8 µM; with K-562 leukemia it was above 100 µM; with OVCAR-4 ovarian, above 100 µM; in the assay with HT29 colon, 29.3 µM. Moreover, the TGI in the assay with 786-0 renal came to 34.8 µM; in the assay with SK-OV-3 ovarian, 39.2 µM; in the assay on UO-31 renal, 30 µM; in the assay on SN12C renal, 32.1 µM.

With `O=C(O)CNc1ccc2c(c1)Cc1cc(Br)ccc1-2`, the TGI in the assay on HOP-92 NSCLC is above 90.7 µM; with SK-MEL-2 melanoma it was above 79 µM; with SNB-75 CNS, above 89.8 µM; in the assay on K-562 leukemia, above 40.9 µM; in the assay on OVCAR-4 ovarian, 87.2 µM; with HT29 colon, 97.4 µM. For the same molecule, the TGI with 786-0 renal was above 84.5 µM; in the assay on SK-OV-3 ovarian, 98.5 µM; in the assay with UO-31 renal it was above 100 µM; in the assay on SN12C renal, above 69.4 µM.

`N[C@@H]1CCCN(c2c(Br)cnc3[nH]cc(NC(=O)C4CC4)c23)C1`: the GI50 in the assay on HOP-92 NSCLC was 1.02 µM; in the assay with SK-MEL-2 melanoma, 0.492 µM; with SNB-75 CNS, 1.53 µM; with K-562 leukemia, 0.303 µM; in the assay with OVCAR-4 ovarian, 0.341 µM; in the assay on HT29 colon it was 1.01 µM. Also, the GI50 with 786-0 renal is 0.22 µM; with SK-OV-3 ovarian, 0.448 µM; with UO-31 renal it was 0.232 µM; with SN12C renal it was 1.78 µM. Further, the TGI with HOP-92 NSCLC is above 55.8 µM; in the assay with SK-MEL-2 melanoma, above 100 µM; with SNB-75 CNS, 7.54 µM; in the assay on K-562 leukemia, above 100 µM; with OVCAR-4 ovarian, above 100 µM; in the assay with HT29 colon, above 100 µM. The TGI in the assay with 786-0 renal was 0.709 µM; with SK-OV-3 ovarian it was above 100 µM; in the assay with UO-31 renal, 1.06 µM; with SN12C renal, above 100 µM.

As to `O=c1ccc(N=Nc2ccccc2)ccc1O`, the TGI in the assay on HOP-92 NSCLC is 41.1 µM; in the assay with SK-MEL-2 melanoma it was 47.5 µM; in the assay on SNB-75 CNS it was 57.8 µM; in the assay on K-562 leukemia, above 100 µM; in the assay on OVCAR-4 ovarian, 69.1 µM; in the assay on HT29 colon, 32.1 µM. Moreover, the TGI with 786-0 renal was 58 µM; in the assay with SK-OV-3 ovarian it was above 100 µM; in the assay with UO-31 renal, 70.9 µM; with SN12C renal, 34.6 µM.

Take `Nc1ncn([C@H]2CC(O)[C@@H](CO)S2)c(=O)n1` (stereo not given in full): the GI50 with HOP-92 NSCLC is above 100 µM; in the assay on SK-MEL-2 melanoma, 7.05 µM; with SNB-75 CNS, 53.9 µM; with K-562 leukemia, 2.2 µM; in the assay on OVCAR-4 ovarian, above 100 µM; in the assay with HT29 colon, 1.25 µM. The GI50 is 13.9 µM in the assay on 786-0 renal, 28.9 µM in the assay on SK-OV-3 ovarian, 2.93 µM in the assay with UO-31 renal and 3.6 µM with SN12C renal. Besides, the TGI in the assay with HOP-92 NSCLC, in the assay with SK-MEL-2 melanoma, with SNB-75 CNS, in the assay with K-562 leukemia, in the assay with OVCAR-4 ovarian and with HT29 colon was above 100 µM in each case. Besides, the TGI in the assay with 786-0 renal, in the assay on SK-OV-3 ovarian, in the assay with UO-31 renal and with SN12C renal was above 100 µM in each case.

In the case of `O=C(/C=C/c1ccc(O)c(O)c1)N1CCN(c2ccc(Cl)cc2)CC1`, the GI50 in the assay on HOP-92 NSCLC is 2.42 µM; with SK-MEL-2 melanoma it was 12.1 µM; in the assay with SNB-75 CNS, 2.93 µM; in the assay on K-562 leukemia, 4.77 µM; in the assay with OVCAR-4 ovarian it was 3.48 µM; with HT29 colon it was 13.1 µM. Besides, the GI50 in the assay on 786-0 renal is 9.39 µM; in the assay on SK-OV-3 ovarian it was 10.1 µM; with UO-31 renal, 2.08 µM; in the assay on SN12C renal, 4.11 µM. For the same molecule, the TGI turned out to be 23.4 µM with HOP-92 NSCLC; 31.9 µM in the assay on SK-MEL-2 melanoma; 30.2 µM in the assay on SNB-75 CNS; 58.7 µM in the assay with K-562 leukemia; 39.5 µM in the assay with OVCAR-4 ovarian; 32 µM in the assay on HT29 colon. For the same molecule, the TGI in the assay with 786-0 renal is 37 µM; with SK-OV-3 ovarian, 67.7 µM; in the assay on UO-31 renal, 20.1 µM; with SN12C renal it was 42.2 µM.

For the molecule `Cc1c(Cl)ccc2c1NC(=O)C2(O)CC(=O)c1ccc(Cl)cc1` (stereo not given), the TGI is above 100 µM in the assay on HOP-92 NSCLC; above 64.2 µM in the assay on SK-MEL-2 melanoma; above 100 µM with SNB-75 CNS; above 64.8 µM in the assay with K-562 leukemia; above 100 µM with OVCAR-4 ovarian; above 66.1 µM with HT29 colon. For the same molecule, the TGI with 786-0 renal was above 100 µM; in the assay on SK-OV-3 ovarian it was above 100 µM; in the assay on UO-31 renal it was above 100 µM; in the assay on SN12C renal, above 54.9 µM.
